# According to patent US9828375B2, “4-position substituted pyrazolopyrimidine derivative, and use thereof in drug preparation” (Guangxi Wuzhou Pharmaceuticals (Group) Co., Ltd., priority 2012, dated 2017):
# Like-named read-outs stand apart in the source and are kept apart here.
# What was measured:
# Assay type in all cases: cell-based
# [1] = system: human malignant melanoma cell line A875; test: In vitro tumor cell proliferation inhibition (MTT): A875
# From the text: (§1) The purpose of the experiment was to test the inhibition activity of the compounds of the invention for in vitro human tumor cell proliferation by the methyl thiazolyl tetrazolium (MTT) colorimetry.
# (§2) Main reagents: RPMI-1640, fetal bovine serum, pancreatin, etc. were purchased from Gibco BRL Company (Invitrogen Corporation, USA) and IMDM medium that was purchased from American Type Culture Collection (ATCC). Methyl thiazolyl tetrazolium (MTT) and dimethyl sulfoxide (DMSO) were products from Sigma Company (USA). Pyrazolopyrimidine derivatives were composed by the inventor. During in vitro experiment, 100% DMSO was prepared into 10 mM storage solution, the solution was stored in a refrigerator at −20° C. for future use, and was diluted to the required concentration with complete culture solution before use.
# (§3) Cell line and culture: Human leukemia cell line MV4-11, Jurkat, K562, human thyrophyma cell line TT, human gastric carcinoma cell line MKN-45, human malignant melanoma cell lines A375 and A875, human pancreatic carcinoma cell line panc-1, human cervical carcinoma cell line HELA, human colorectal carcinoma cell line HCT116, etc. were purchased from American type culture collection and were preserved by this laboratory. All leukemia cell lines (except MV4-11), gastric carcinoma cell lines and thyrophyma cell lines were cultured in RPMI-1640 complete medium containing 10% fetal bovine serum, 100 U/mL penicillin and 100 μg/mL streptomycin at 37° C. in 5% CO2. The remaining cell lines were cultured in DMEM complete medium containing 10% fetal bovine serum (containing 20% MV4-11 cell), 100 U/mL penicillin and 100 µg/mL streptomycin at 37° C. in 5% CO2.
# (§4) Cell suspension with cell concentration of 1-2×10^4/mL was adjusted with the complete cell medium and inoculated in a 96-well plate, with each well filled with 200 μl cell suspension that was cultured overnight. On the next day, supernatant was sucked and abandoned (supernatant was sucked upon centrifugation of suspension cells), and then cells were processed with test compounds at gradient concentrations respectively. Meanwhile, a negative control group free from drug and a solvent control group with equal volume were set, and the DMSO concentration was 0.1%. Each dose group was provided with three wells and cultured at 37° C. in 5% CO2. After 72 hours, 20 μl 5 mg/mL MTT reagent was added to each well, and cultured for another 2 to 4 hours, the supernatant was abandoned; 150 μL DMSO was added to each well again, vibrated and mixed evenly for 15 minutes; the absorbance (A) values (proportional to living cell amount) were determined with a microplate reader (λ=570 nm) and averaged. […] Experiment was repeated for 3 times at least. Experimental data were expressed with means, data statistics were tested by t, and P<0.05 means that difference has a statistical significance. The cell proliferation inhibition effects of all compounds as follows are expressed by IC50 or inhibition rate.
# [2] = system: human malignant melanoma cell line A375; test: In vitro tumor cell proliferation inhibition (MTT): A375
# From the text: as §1, §2, §3, §4
# [3] = system: human colorectal carcinoma cell line HCT116; test: In vitro tumor cell proliferation inhibition (MTT): HCT116
# From the text: as §1, §2, §3, §4
# [4] = 72 hours, read-out: Proliferation inhibition activity (IC50) HCT 116
# [5] = Homo sapiens, HCT-116, 72 hours
Compound,IC50 ([1]; 72 hours),IC50 ([2]; 72 hours),"IC50 [3, 4]","IC50 ([1]; Homo sapiens, A875, 72 hours)","IC50 ([2]; Homo sapiens, A-375, 72 hours)","IC50 [3, 5]"
1-(4-((1H-pyrazolopyrimidine-4-yl)oxy)-3-fluorophenyl)-3-(3-trifluoromethoxy)phenyl)urea [4a-8],6.97 µM,4.65 µM,5.7 µM,–,–,–
1-(4-((1H-pyrazolopyrimidine-4-yl)oxy)phenyl)-3-(methylcyclohexyl)urea [4a-20],< 50 µM,< 50 µM,< 50 µM,–,–,–
O=C(Nc1ccc(Oc2ncnc3[nH]ncc23)cc1)Nc1ccc(C(F)(F)F)cc1 [4a-1],–,–,–,3 to 10 µM,< 50 µM,< 50 µM
O=C(Nc1ccc(Oc2ncnc3[nH]ncc23)cc1)Nc1ccc(Cl)c(C(F)(F)F)c1 [4a-2],4.12 µM,2.12 µM,< 50 µM,–,–,–
O=C(Nc1ccc(Oc2ncnc3[nH]ncc23)cc1)Nc1cccc(C(F)(F)F)c1 [4a-6],–,–,–,6.24 µM,3.45 µM,< 50 µM
"CC(C)c1cccc(NC(=O)Nc2ccc(Oc3ncnc4[nH]ncc34)c(F)c2)c1 [4a-7, 1-(4-((1H-pyrazolopyrimidine-4-yl)oxy)-3-fluorophenyl)-3-(3-isopropylphenyl)urea]",< 50 µM,< 50 µM,< 50 µM,–,–,–
"O=C(Nc1ccc(C(F)(F)F)cc1)Nc1ccc(Oc2ncnc3[nH]ncc23)c(F)c1 [4a-9, 1-(4-((1H-pyrazolopyrimidine-4-yl)oxy)-3-fluorophenyl)-3-(4-(trifluoromethyl)phenyl)urea]",< 50 µM,< 50 µM,4.56 µM,–,–,–
"O=C(Nc1ccc(Oc2ncnc3[nH]ncc23)c(F)c1)Nc1ccc(Cl)c(C(F)(F)F)c1 [4a-10, 1-(4-((1H-pyrazolopyrimidine-4-yl)oxy)-3-fluorophenyl)-3-(4-chloro-3-(trifluoromethyl)phenyl)urea]",< 50 µM,< 50 µM,< 50 µM,–,–,–
"O=C(Nc1ccc(Oc2ncnc3[nH]ncc23)cc1)Nc1cc(C(F)(F)F)cc(C(F)(F)F)c1 [4a-12, 1-(4-((1H-pyrazolopyrimidine-4-yl)oxy)phenyl)-3-(3,5-bis(trifluoromethyl)phenyl)urea]",< 50 µM,< 50 µM,< 50 µM,–,–,–
O=C(Nc1ccc(Oc2ncnc3[nH]ncc23)cc1)Nc1ccc(C(F)(F)F)cc1Cl [4a-13],< 50 µM,< 50 µM,< 50 µM,–,–,–
"O=C(Nc1ccccc1)Nc1ccc(Oc2ncnc3[nH]ncc23)cc1 [4a-15, 1-(4-((1H-pyrazolopyrimidine-4-yl)oxy)phenyl)-3-phenylurea]",< 50 µM,< 50 µM,< 50 µM,–,–,–
"O=C(Nc1ccc(Oc2ncnc3[nH]ncc23)cc1)Nc1ccc(N2CCOCC2)cc1 [4a-16, 1-(4-((1H-pyrazolopyrimidine-4-yl)oxy)phenyl)-3-(4-morpholinylphenyl)urea]",–,–,–,< 50 µM,< 50 µM,< 50 µM
"C[C@H](NC(=O)Nc1ccc(Oc2ncnc3[nH]ncc23)cc1)c1ccccc1 [4a-18, (S)-1-(4-((1H-pyrazolopyrimidine-4-yl)oxy)phenyl)-3-(1-phenethyl)urea]",< 50 µM,< 50 µM,< 50 µM,–,–,–
"C[C@@H](NC(=O)Nc1ccc(Oc2ncnc3[nH]ncc23)cc1)c1ccccc1 [4a-19, (R)-1-(4-((1H-pyrazolopyrimidine-4-yl)oxy)phenyl)-3-(1-phenethyl)urea]",< 50 µM,< 50 µM,< 50 µM,–,–,–
CC(C)(C)c1cc(NC(=O)Nc2ccc(Oc3ncnc4[nH]ncc34)cc2)n(-c2ccccc2)n1 [4a-24],4.27 µM,6.94 µM,6.75 µM,–,–,–
CC(C)(C)c1cc(NC(=O)Nc2ccc(Oc3ncnc4[nH]ncc34)cc2)on1 [4a-25],3 to 10 µM,3 to 10 µM,3 to 10 µM,–,–,–
CC(C)(C)c1cc(NC(=O)Nc2ccc(Oc3ncnc4[nH]ncc34)cc2)no1 [4a-26],–,–,–,3 to 10 µM,3 to 10 µM,3 to 10 µM
O=C(Nc1ccc(Oc2ncnc3[nH]ncc23)cc1)Nc1cc(C(F)(F)F)on1 [4a-28],–,–,–,< 50 µM,< 50 µM,< 50 µM
CC(C)(C)c1cc(NC(=O)Nc2ccc(Oc3ncnc4[nH]ncc34)c(F)c2)no1 [4a-31],3 to 10 µM,3 to 10 µM,–,–,–,–
O=C(Nc1cccc(Nc2ncnc3[nH]ncc23)c1)Nc1ccc(F)c(Cl)c1 [4b-1],–,–,–,< 50 µM,< 50 µM,< 50 µM
"C[C@@H](NC(=O)Nc1ccc(Nc2ncnc3[nH]ncc23)cc1)c1ccccc1 [4b-2, (R)-1-(4-(1H-pyrazolopyrimidine-4-amido)phenyl)-3-(1-phenethyl)urea]",–,–,–,< 50 µM,< 50 µM,< 50 µM
COc1cccc(NC(=O)Nc2ccc(Nc3ncnc4[nH]ncc34)cc2)c1 [4b-3],–,–,–,< 50 µM,< 50 µM,< 50 µM
C[C@H](NC(=O)Nc1ccc(Nc2ncnc3[nH]ncc23)cc1)c1ccccc1 [4b-4],< 50 µM,< 50 µM,< 50 µM,–,–,–
"COc1ccc(NC(=O)Nc2ccc(NC(=O)N3C=NC=C4NNC=C43)cc2)cc1 [4b-6, 1-(4-(1H-pyrazolopyrimidine-4-amido)phenyl)-3-(4-methoxyphenyl)urea]",–,–,–,< 50 µM,< 50 µM,< 50 µM
"Cc1cc(C)c(NC(=O)Nc2ccc(NC(=O)N3C=NC=C4NNC=C43)cc2)c(C)c1 [4b-7, 1-(4-(1H-pyrazolopyrimidine-4-amido)phenyl)-3-(2,4,6-trimethylphenyl)urea]",–,–,–,< 50 µM,< 50 µM,< 50 µM
O=C(Nc1ccc(Sc2ncnc3[nH]ncc23)cc1)Nc1ccc(C(F)(F)F)cc1 [4c-1],–,–,–,< 50 µM,< 50 µM,–
O=C(Nc1ccc(Sc2ncnc3[nH]ncc23)cc1)Nc1cccc(C(F)(F)F)c1 [4c-2],< 50 µM,< 50 µM,–,–,–,–
"CC(C)(C)c1cc(NC(=O)Nc2ccc(Sc3ncnc4[nH]ncc34)cc2)no1 [4c-3, 1-(4-(1H-pyrazolopyrimidine-4-sulfydryl)phenyl)-3-(5-tert-butylisoxazol-3-yl)urea]",< 50 µM,< 50 µM,< 50 µM,–,–,–
"CC(C)n1ncc2c(Oc3ccc(NC(=O)Nc4cc(C(C)(C)C)on4)cc3)ncnc21 [5a-4, 1-(5-tert-butylisoxazol-3-yl)-3-(4-(1-isopropyl-(1H-pyrazolopyrimidine-4-yl)oxy)phenyl)urea]",–,–,–,< 50 µM,< 50 µM,< 50 µM
